Data on 43 substances can be found in US11957716B2 (Immatics Biotechnologies GmbH, priority 2021, dated 2024).

In test [1] the test system is HLA-A*01:01, HLA-A*02:01, HLA-A*03:01, HLA-A*24:02, HLA-B*07:02, HLA-B*08:01 and HLA-B*44:02. In words: HLA alleles the peptides bind to (Table 7). The test is classed as binding, human. Particulars: allotype from the group HLA-A*01:01, HLA-A*02:01, HLA-A*03:01, HLA-A*24:02, HLA-B*07:02, HLA-B*08:01, HLA-B*44:02. An excerpt:
However, due to similarities in binding pattern such as the relevant anchoring positions some peptides bind to more than one allele, such an overlap is most likely, but not limited to, HLA-A*01 binding peptides also binding to HLA-B*15, HLA-A*03 binding peptides also binding to HLA-A*11, HLA-B*07 binding peptides also binding to HLA-B*35 and HLA-B*51.

The target of test [2] is HLA-A*03:01 (Homo sapiens, UniProt P04439). The test can be described thus: MHC binding assay, UV-ligand exchange ELISA. Particulars: peptide exchange yield, binding to HLA-A*03:01. An excerpt:
Candidate peptides for T cell based therapies according to the present invention were further tested for their MHC binding capacity (affinity). The individual peptide-MHC complexes were produced by UV-ligand exchange, where a UV-sensitive peptide is cleaved upon UV-irradiation and exchanged with the peptide of interest as analyzed. Only peptide candidates that can effectively bind and stabilize the peptide-receptive MHC molecules prevent dissociation of the MHC complexes. To determine the yield of the exchange reaction, an ELISA was performed based on the detection of the light chain (β2m) of stabilized MHC complexes. The assay was performed as generally described in Rodenko et al. (Rodenko et al., 2006).
96 well MAXISorp plates (NUNC) were coated over night with 2 μg/ml streptavidin in PBS at room temperature, washed 4× and blocked for 1 h at 37° C. in 2% BSA containing blocking buffer. Refolded HLA-A*02:01/MLA-001 monomers served as standards, covering the range of 15-500 ng/ml. Peptide-MHC monomers of the UV-exchange reaction were diluted 100-fold in blocking buffer. Samples were incubated for 1 h at 37° C., washed four times, incubated with 2 μg/ml HRP conjugated anti-82m for 1 h at 37° C., washed again and detected with TMB solution that is stopped with […]. Absorption was measured at 450 nm. Candidate peptides that show a high exchange yield (preferably higher than 50%, most preferred higher than 75%) are generally preferred for a generation and production of antibodies or fragments thereof, and/or T cell receptors or fragments thereof, as they show sufficient avidity to the MHC molecules and prevent dissociation of the MHC complexes.

For the substance “1 (AILAPPAILK; listed as Homo sapiens) [compound 1]”, the “Binders (HLA alleles the peptides according to the invention bind to)” value (shortened to “Binders”) in test [1] is reported as “HLA-A*03:01”. Besides, the Peptide exchange entry in test [2] was “++++ (≥75% = ++++)”. With “2 (GTVFVLLSK; listed as Homo sapiens) [compound 2]”, the “Binders” value in test [1] was “HLA-A*03:01”. Besides, in test [2], the Peptide exchange result is “++ (≥20% = ++)”.

For the substance “8 (VIYNQTLMK; listed as Homo sapiens) [compound 8]”, in test [1], the “Binders” value is given as “HLA-A*03:01”. In addition, in test [2], the Peptide exchange entry was “++++ (≥75% = ++++)”. For “17 (MVNWSLTNK; listed as Homo sapiens) [compound 17]”, in that order: “HLA-A*03:01” and “++++ (≥75% = ++++)”. As for “19 (RILEVVRQPK; listed as Homo sapiens) [compound 19]”, the “Binders” value in test [1] was “HLA-A*03:01”. In addition, in test [2], the Peptide exchange result is “++++ (≥75% = ++++)”.

For “20 (ILAPPAILK; listed as Homo sapiens) [compound 20]”, the “Binders” value in test [1] is “HLA-A*03:01”. Further, the Peptide exchange result in test [2] is reported as “++++ (≥75% = ++++)”. On to “21 (MLSAQFILK; listed as Homo sapiens) [compound 21]”, for which the “Binders” value in test [1] was “HLA-A*03:01”. In test [2], the Peptide exchange result was “++++ (≥75% = ++++)”. With “22 (RVIEVVMNSK; listed as Homo sapiens) [compound 22]”, the “Binders” value in test [1] is “HLA-A*03:01”. In test [2], the Peptide exchange result is reported as “++++ (≥75% = ++++)”. Take “24 (LIYIPTNSIYK; listed as Homo sapiens) [compound 24]”: the “Binders” value in test [1] is “HLA-A*03:01”. For the same substance, the Peptide exchange entry in test [2] is “++++ (≥75% = ++++)”.

In the case of “25 (GVCSTLTIK; listed as Homo sapiens) [compound 25]”, the “Binders” value in test [1] was “HLA-A*03:01”. Moreover, the Peptide exchange entry in test [2] is “++++ (≥75% = ++++)”.

As to “28 (ATLQAVTLYKK; listed as Homo sapiens) [compound 28]”, the “Binders” value in test [1] is on record as “HLA-A*03:01”. Besides, in test [2], the Peptide exchange result is recorded as “++++ (≥75% = ++++)”. The corresponding values for “29 (GTFIAPVMK; listed as Homo sapiens) [compound 29]” are “HLA-A*03:01” and “++++ (≥75% = ++++)”. The corresponding values for “34 (LLFKGLMWK; listed as Homo sapiens) [compound 34]” are “HLA-A*03:01” and “++++ (≥75% = ++++)”. The corresponding values for “35 (SLATAISAK; listed as Homo sapiens) [compound 35]” are “HLA-A*03:01” and “+++ (≥50% = +++)”. For the substance “37 (RLYSGSSFLY; listed as Homo sapiens) [compound 37]”, the “Binders” value in test [1] is listed as “HLA-A*03:01”. Also, in test [2], the Peptide exchange entry is “++++ (≥75% = ++++)”.

As to “38 (AVVSHFILY; listed as Homo sapiens) [compound 38]”, in test [1], the “Binders” value was “HLA-A*03:01”. Further, in test [2], the Peptide exchange entry is recorded as “+++ (≥50% = +++)”. For “44 (SLFPYFLNK; listed as Homo sapiens) [compound 44]”, in that order: “HLA-A*03:01” and “++++ (≥75% = ++++)”. For “50 (KTIDLVIVR; listed as Homo sapiens) [compound 50]”, in that order: “HLA-A*03:01” and “++++ (≥75% = ++++)”. The corresponding values for “51 (SVFSLVHLFDK; listed as Homo sapiens) [compound 51]” are “HLA-A*03:01” and “++++ (≥75% = ++++)”. Regarding “53 (TTLENLPQK; listed as Homo sapiens) [compound 53]”, in test [1], the “Binders” value was “HLA-A*03:01”. For the same substance, in test [2], the Peptide exchange result is “+++ (≥50% = +++)”. Turning to “61 (GLIAFAIFK; listed as Homo sapiens) [compound 61]”, the “Binders” value in test [1] is “HLA-A*03:01”. “70 (LIAGLIFLK; listed as Homo sapiens) [compound 70]”: the “Binders” value in test [1] is “HLA-A*03:01”. The Peptide exchange result in test [2] was “+++ (≥50% = +++)”. For “72 (GSCSFALSR; listed as Homo sapiens) [compound 72]”, in that order: “HLA-A*03:01” and “++++ (≥75% = ++++)”.

“75 (TTAAVYILK; listed as Homo sapiens) [compound 75]”: the “Binders” value in test [1] was “HLA-A*03:01”. In addition, in test [2], the Peptide exchange result is “+++ (≥50% = +++)”. Regarding “79 (SLFRLSISF; listed as Homo sapiens) [compound 79]”, the “Binders” value in test [1] was “HLA-A*24:02”. “81 (KLIAGLIFLK; listed as Homo sapiens) [compound 81]”: the “Binders” value in test [1] is reported as “HLA-A*03:01”. In addition, in test [2], the Peptide exchange entry is listed as “+++ (≥50% = +++)”.

Turning to “88 (KVGAVVHLK; listed as Homo sapiens) [compound 88]”, the “Binders” value in test [1] was “HLA-A*03:01”. The Peptide exchange entry in test [2] is “+++ (≥50% = +++)”. For “90 (LALLGAPPPK; listed as Homo sapiens) [compound 90]”, in that order: “HLA-A*03:01” and “++ (≥20% = ++)”.

As for “91 (RIVTYIVAK; listed as Homo sapiens) [compound 91]”, the “Binders” value in test [1] was “HLA-A*03:01”. Also, the Peptide exchange result in test [2] is “+++ (≥50% = +++)”.

For the substance “94 (AVFLGNPSNQK; listed as Homo sapiens) [compound 94]”, in test [1], the “Binders” value is “HLA-A*03:01”. For the same substance, the Peptide exchange result in test [2] is “++++ (≥75% = ++++)”. The corresponding values for “101 (ATNSFLLIK; listed as Homo sapiens) [compound 101]” are “HLA-A*03:01” and “++++ (≥75% = ++++)”. Turning to “104 (GSLQTLPPK; listed as Homo sapiens) [compound 104]”, the “Binders” value in test [1] is “HLA-A*03:01”. The Peptide exchange result in test [2] is on record as “+++ (≥50% = +++)”. “107 (SVISVLTTPK; listed as Homo sapiens) [compound 107]”: the “Binders” value in test [1] is “HLA-A*03:01”. The Peptide exchange entry in test [2] is listed as “++++ (≥75% = ++++)”. As for “112 (ETYGTFVLR; listed as Homo sapiens) [compound 112]”, in test [1], the “Binders” value is given as “HLA-A*03:01”. In addition, in test [2], the Peptide exchange result is “+++ (≥50% = +++)”. On to “119 (VLHGLLFTL; listed as Homo sapiens) [compound 119]”, for which the “Binders” value in test [1] was “HLA-A*02:01”. As to “125 (ALAQGANLK; listed as Homo sapiens) [compound 125]”, in test [1], the “Binders” value is listed as “HLA-A*03:01”. The Peptide exchange result in test [2] is “+++ (≥50% = +++)”. Regarding “127 (TVATQVATSK; listed as Homo sapiens) [compound 127]”, the “Binders” value in test [1] was “HLA-A*03:01”. For the same substance, the Peptide exchange result in test [2] was “+++ (≥50% = +++)”.

In the case of “128 (MTFVPLLAR; listed as Homo sapiens) [compound 128]”, the “Binders” value in test [1] is recorded as “HLA-A*03:01”. Further, the Peptide exchange entry in test [2] was “++++ (≥75% = ++++)”. With “138 (RTLPLEGSPK; listed as Homo sapiens) [compound 138]”, the “Binders” value in test [1] is on record as “HLA-A*03:01”. In addition, the Peptide exchange result in test [2] is reported as “+++ (≥50% = +++)”. Consider “172 (LLYKTLIIL; listed as Homo sapiens) [compound 172]”, for which the “Binders” value in test [1] is “HLA-A*02:01”. Still for that read-out and setting: the same measure for “176 (AFLLSLISL; listed as Homo sapiens) [compound 176]”: “HLA-A*24:02”; for “197 (HHTQLVFVF; listed as Homo sapiens) [compound 197]”: “HLA-A*24:02”; for “211 (VVTIVMHIYK; listed as Homo sapiens) [compound 211]”: “HLA-A*03:01”.
